Assay results from ChEMBL document CHEMBL6114993, “Thienopyrimidine: A promising scaffold in the development of kinase inhibitors with anticancer activities” (Bioorg Med Chem, 2025).

Columns and labels:
[1] = target: Epidermal growth factor receptor (Homo sapiens) (UniProt P00533); experiment: Inhibition of human recombinant EGFR at 10 uM relative to control
[2] = target: Receptor tyrosine-protein kinase erbB-2 (Homo sapiens) (UniProt P04626); experiment: Inhibition of human recombinant HER-2 at 10 uM relative to control
HUVEC = experiment: Antiproliferative activity against HUVEC cells assessed as reduction in cell viability at 10 uM by alamar blue reagent based assay relative to control; assay type: functional; details: Homo sapiens
Ehrlich = experiment: Antitumor activity against mouse Ehrlich carcinoma cell implanted in Swiss albino mouse model assessed as tumour growth inhibition at 10 mg/kg, po administered consecutively for 8 days relative to control; assay type: functional; details: 192 h, time 8 day, read-out: TGI
[3] = target: Vascular endothelial growth factor receptor 2 (Homo sapiens) (UniProt P35968); experiment: Inhibition of N-terminal GST-tagged human recombinant VEGFR2 extracted from Sf9 cells at 10 uM relative to control; assay type: cell-free
MCF7 = experiment: Antiproliferative activity against human MCF7 cells assessed as reduction in cell viability incubated for 48 hrs by MTT assay; assay type: functional, cell-based; details: MCF7, 48 h
[4] = target: T1, Fas-activated serine/threonine kinase (Homo sapiens, UniProt Q14296); experiment: Inhibition of […] human FASTK (355 to 444 residues) extracted from Escherichia coli BL21 (DE3) by Malachite Green dye based assay
T1 sequence (Q14296 whole entry): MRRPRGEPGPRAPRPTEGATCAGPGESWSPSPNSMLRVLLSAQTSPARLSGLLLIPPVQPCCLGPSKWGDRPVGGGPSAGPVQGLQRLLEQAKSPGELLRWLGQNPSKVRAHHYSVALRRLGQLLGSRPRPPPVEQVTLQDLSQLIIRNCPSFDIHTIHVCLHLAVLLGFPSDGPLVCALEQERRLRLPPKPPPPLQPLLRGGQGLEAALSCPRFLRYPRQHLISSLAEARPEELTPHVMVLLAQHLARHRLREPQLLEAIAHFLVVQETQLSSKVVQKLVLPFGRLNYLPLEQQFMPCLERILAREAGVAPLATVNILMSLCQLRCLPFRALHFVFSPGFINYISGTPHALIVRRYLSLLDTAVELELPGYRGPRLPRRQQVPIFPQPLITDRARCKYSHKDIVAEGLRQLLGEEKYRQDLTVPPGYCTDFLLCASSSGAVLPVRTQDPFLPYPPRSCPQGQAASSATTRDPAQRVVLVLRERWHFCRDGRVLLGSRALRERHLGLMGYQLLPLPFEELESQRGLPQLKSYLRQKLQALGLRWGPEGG

SK-OV-3 = experiment: Antiproliferative activity against human SK-OV-3 cells overexpressing EGFR/HER-2 assessed as inhibition of cell growth at 10 uM relative to control; assay type: functional
MDA-MB-468 = experiment: Antiproliferative activity against human MDA-MB-468 cells overexpressing EGFR/HER-2 assessed as inhibition of cell growth at 10 uM relative to control; assay type: functional
NCI-H522 = experiment: Antiproliferative activity against human NCI-H522 cells overexpressing EGFR/HER-2 assessed as inhibition of cell growth at 10 uM relative to control; assay type: functional

Receptor tyrosine-protein kinase erbB-2 (Homo sapiens), sequence (P04626 whole entry): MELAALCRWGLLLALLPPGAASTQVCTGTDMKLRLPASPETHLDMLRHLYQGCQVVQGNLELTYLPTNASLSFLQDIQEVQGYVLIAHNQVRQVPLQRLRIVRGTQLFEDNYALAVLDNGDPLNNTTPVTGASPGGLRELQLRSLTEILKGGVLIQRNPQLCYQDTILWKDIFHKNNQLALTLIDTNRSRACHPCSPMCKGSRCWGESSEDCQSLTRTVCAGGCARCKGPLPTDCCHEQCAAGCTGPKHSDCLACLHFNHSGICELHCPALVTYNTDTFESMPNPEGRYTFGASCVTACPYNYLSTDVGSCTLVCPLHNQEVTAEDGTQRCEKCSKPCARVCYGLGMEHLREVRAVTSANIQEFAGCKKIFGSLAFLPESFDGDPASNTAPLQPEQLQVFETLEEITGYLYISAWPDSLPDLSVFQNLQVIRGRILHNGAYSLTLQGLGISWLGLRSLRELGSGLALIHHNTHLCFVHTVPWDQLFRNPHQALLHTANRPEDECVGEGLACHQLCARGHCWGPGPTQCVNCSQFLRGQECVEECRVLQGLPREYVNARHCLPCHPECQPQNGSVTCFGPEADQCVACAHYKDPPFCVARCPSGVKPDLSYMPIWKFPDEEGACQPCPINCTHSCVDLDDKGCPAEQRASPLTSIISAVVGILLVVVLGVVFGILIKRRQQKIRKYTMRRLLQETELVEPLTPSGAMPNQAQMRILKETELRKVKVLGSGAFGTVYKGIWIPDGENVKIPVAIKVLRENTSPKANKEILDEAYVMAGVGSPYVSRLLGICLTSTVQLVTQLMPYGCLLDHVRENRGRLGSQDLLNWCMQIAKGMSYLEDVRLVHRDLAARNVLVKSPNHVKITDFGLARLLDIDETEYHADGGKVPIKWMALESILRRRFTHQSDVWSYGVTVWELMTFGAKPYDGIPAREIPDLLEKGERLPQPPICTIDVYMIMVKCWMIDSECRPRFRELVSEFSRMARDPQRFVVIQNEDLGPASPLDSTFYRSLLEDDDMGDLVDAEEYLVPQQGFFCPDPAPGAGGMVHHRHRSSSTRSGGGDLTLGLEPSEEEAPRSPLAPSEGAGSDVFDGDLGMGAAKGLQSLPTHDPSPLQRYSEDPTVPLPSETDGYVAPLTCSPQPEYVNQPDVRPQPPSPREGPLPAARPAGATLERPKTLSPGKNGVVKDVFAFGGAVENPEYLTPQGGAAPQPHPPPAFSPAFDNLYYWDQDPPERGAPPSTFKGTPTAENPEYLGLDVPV
Epidermal growth factor receptor (Homo sapiens), sequence (P00533 whole entry): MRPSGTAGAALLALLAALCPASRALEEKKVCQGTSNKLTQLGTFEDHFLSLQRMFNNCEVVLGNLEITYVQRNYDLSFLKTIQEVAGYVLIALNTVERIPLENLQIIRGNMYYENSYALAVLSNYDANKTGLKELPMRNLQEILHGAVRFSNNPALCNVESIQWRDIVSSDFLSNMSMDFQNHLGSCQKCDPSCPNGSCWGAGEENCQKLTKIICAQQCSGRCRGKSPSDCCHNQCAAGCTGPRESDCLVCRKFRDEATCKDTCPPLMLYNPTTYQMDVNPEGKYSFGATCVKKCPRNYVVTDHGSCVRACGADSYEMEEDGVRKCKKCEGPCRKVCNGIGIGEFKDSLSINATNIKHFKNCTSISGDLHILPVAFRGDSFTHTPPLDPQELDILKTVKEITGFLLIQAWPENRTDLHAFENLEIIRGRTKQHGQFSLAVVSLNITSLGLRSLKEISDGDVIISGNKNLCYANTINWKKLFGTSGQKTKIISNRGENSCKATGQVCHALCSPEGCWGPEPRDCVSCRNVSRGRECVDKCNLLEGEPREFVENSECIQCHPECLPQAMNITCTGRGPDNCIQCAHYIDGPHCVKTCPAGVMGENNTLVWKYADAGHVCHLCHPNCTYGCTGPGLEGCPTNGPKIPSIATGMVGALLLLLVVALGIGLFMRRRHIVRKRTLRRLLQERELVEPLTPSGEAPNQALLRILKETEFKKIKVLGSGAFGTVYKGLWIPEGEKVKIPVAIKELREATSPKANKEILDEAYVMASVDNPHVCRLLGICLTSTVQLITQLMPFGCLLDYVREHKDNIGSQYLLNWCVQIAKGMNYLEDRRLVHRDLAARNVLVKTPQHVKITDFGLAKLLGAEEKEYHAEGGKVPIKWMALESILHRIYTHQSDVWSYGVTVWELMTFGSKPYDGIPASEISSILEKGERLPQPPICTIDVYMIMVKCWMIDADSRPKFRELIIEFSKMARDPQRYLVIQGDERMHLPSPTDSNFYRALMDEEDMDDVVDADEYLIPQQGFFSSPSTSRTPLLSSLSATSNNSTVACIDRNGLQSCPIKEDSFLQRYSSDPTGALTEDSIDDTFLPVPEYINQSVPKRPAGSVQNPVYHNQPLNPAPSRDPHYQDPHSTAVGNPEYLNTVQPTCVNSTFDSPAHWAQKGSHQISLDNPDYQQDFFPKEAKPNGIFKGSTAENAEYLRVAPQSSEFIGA
Vascular endothelial growth factor receptor 2 (Homo sapiens), sequence (P35968 whole entry): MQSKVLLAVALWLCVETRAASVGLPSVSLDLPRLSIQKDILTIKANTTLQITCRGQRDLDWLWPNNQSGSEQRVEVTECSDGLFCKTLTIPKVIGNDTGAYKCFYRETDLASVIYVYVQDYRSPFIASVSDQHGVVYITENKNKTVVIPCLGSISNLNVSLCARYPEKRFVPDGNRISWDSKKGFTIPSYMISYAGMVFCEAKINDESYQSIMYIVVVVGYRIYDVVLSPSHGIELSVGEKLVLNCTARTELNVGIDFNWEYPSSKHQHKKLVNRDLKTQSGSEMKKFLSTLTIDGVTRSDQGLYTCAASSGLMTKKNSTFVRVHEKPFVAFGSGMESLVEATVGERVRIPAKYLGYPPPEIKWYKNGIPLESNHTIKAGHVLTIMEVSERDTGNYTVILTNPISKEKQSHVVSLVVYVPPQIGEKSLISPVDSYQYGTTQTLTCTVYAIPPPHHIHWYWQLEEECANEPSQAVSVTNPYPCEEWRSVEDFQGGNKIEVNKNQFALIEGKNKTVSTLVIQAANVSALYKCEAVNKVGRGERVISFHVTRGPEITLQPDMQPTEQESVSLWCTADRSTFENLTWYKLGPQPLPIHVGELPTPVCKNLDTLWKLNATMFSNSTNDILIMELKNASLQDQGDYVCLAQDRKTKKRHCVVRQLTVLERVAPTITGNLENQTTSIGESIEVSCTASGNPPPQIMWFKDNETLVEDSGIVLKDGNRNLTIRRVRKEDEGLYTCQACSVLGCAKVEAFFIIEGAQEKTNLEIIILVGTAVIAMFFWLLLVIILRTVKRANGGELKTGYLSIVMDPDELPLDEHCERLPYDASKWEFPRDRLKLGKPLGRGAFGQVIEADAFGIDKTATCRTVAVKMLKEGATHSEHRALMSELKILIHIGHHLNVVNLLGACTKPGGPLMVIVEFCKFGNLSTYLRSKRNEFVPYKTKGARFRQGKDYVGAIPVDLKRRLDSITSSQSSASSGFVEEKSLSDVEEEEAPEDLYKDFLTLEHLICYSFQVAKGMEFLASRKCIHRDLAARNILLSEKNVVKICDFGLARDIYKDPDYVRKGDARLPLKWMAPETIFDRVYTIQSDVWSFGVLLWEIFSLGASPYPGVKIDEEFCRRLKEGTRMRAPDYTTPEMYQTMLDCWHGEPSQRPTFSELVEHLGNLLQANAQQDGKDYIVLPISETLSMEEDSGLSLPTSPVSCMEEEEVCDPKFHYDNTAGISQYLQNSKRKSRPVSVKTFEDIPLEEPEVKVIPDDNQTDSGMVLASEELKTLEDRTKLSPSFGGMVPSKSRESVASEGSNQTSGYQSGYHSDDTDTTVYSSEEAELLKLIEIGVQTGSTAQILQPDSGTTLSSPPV

| SMILES | inhibition [1] [%] | inhibition [2] [%] | inhibition at 10 µM (HUVEC) [%] | also measured |
| --- | --- | --- | --- | --- |
| c1ccc(COc2ccc(Nc3ncnc4sc5c(c34)CCCC5)cc2)cc1 | 93 | 84 | – | – |
| Cc1cccc(NC(=O)Nc2ccc(Oc3ncnc4sc5c(c34)CCCC5)cc2)c1 | – | – | 82 | inhibition in vivo at 10 mg/kg (Ehrlich): 86.4% |
| Clc1cc(Nc2ncnc3sc4c(c23)CCCC4)ccc1OCc1ccccc1 | 93 | 84 | – | – |
| O=C(Nc1ccc(Cl)cc1)Nc1ccc(Oc2ncnc3sc4c(c23)CCCC4)cc1 | – | – | – | inhibition [3]: 46% |
| COc1cccc(NC(=O)Nc2ccc(Oc3ncnc4sc5c(c34)CCCC5)cc2)c1 | – | – | 79.2 | – |
| COc1ccc(/C=C/C(=O)c2ccc(Nc3ncnc4sc5c(c34)CCCC5)cc2)cc1OC | – | – | – | IC50 (MCF7): 8.2 µM; IC50 [4]: 0.15 µM |
| O=C(/C=C/c1ccc(Cl)cc1)c1ccc(Nc2ncnc3sc4c(c23)CCCC4)cc1 | – | – | – | IC50 (MCF7): 6.52 µM; IC50 [4]: 0.17 µM |
| Fc1cccc(COc2ccc(Nc3ncnc4sc5c(c34)CCCC5)cc2)c1 | 93 | 84 | – | – |
| O=C(/C=C/c1ccccc1)c1ccc(Nc2ncnc3sc4c(c23)CCCC4)cc1 | – | – | – | IC50 (MCF7): 20.2 µM; IC50 [4]: 0.32 µM |
| Fc1cccc(COc2ccc(Nc3ncnc4sc5c(c34)CCCC5)cc2Cl)c1 | 93 | 84 | – | inhibition at 10 µM (SK-OV-3): 80.6%; inhibition at 10 µM (MDA-MB-468): 68.2%; inhibition at 10 µM (NCI-H522): 56% |
| Cc1ccc(NC(=O)Nc2ccc(Oc3ncnc4sc5c(c34)CCCC5)cc2)cc1Cl | – | – | 46 | inhibition in vivo at 10 mg/kg (Ehrlich): 82.7% |
| O=C(Nc1ccccc1)Nc1ccc(Oc2ncnc3sc4c(c23)CCCC4)cc1 | – | – | 64.3 | – |
| Fc1ccc(COc2ccc(Nc3ncnc4sc5c(c34)CCCC5)cc2Cl)cc1 | 93 | 84 | – | – |
